Assay results: ChEMBL document CHEMBL3272080, “Analogues of luteinizing hormone releasing factor modified at positions 2, 6, and 10” (J Med Chem, 1976)
*1 amine or outer side, *2 acyl side, *3 side chain or, on linkers, in order; H or OH if unused. Where a SMILES comes first, the peptide text is derived from it. [ ]: non-standard residue; d: D form. X1 = CCCCCCCCCCCCNCCC[C@@H](N[*:1])C(=O)[*:2]; pGlu = O=C1CC[C@@H](C(=O)O)N1

Key:
[1] = Retardation factor in 1-butanol-ethyl acetate-acetic acid-water at 1:1:1:1 ratio by TLC; assay type: physicochemical; details: buffer
[2] = Retardation factor in ethyl acetate-pyridine-acetic acid-water at 5:5:1:3 ratio by TLC; assay type: physicochemical; details: buffer
[3] = Retardation factor in 1-butanol-2-propanol-1 N ammonium hydroxide-ethyl acetate at 1:1:2.5:1 ratio by TLC; assay type: physicochemical
[4] = Retardation factor in 2-butanol-0.1 N acetic acid at 1:1 ratio by TLC; assay type: physicochemical
[5] = Inhibition of LRF-induced luteinizing hormone secretion in rat anterior pituitary cells relative to [des-His2,D-Ala6]-LRF; assay type: functional, Pituitary gland cell
[6] = Retardation factor in 2-butanol-water at 1:1 ratio by TLC; assay type: physicochemical; details: buffer
[7] = Retardation factor in 1-butanol-acetic acid-water at 4:1:5 ratio by TLC; assay type: physicochemical; details: buffer
[8] = Retardation factor in 1-butanol-pyridine-0.1% acetic acid at 5:3:11 ratio by TLC; assay type: physicochemical
[9] = Increase in luteinizing hormone secretion in rat anterior pituitary cells relative to luteinizing hormone releasing factor; assay type: functional, Pituitary gland cell
[10] = Retardation factor in 2-butanol-0.1 N ammonium hydroxide at 1:1 ratio by TLC; assay type: physicochemical

| SMILES | Rf [1] | Rf [2] | Rf [3] | Rf [4] | fold change (FC) [5] | Rf [6] | Rf [7] | Rf [8] | fold change (FC) [9] | Rf [10] |
| --- | --- | --- | --- | --- | --- | --- | --- | --- | --- | --- |
| CCNC(=O)[C@@H]1CCCN1C(=O)[C@H](CCCNC(=N)N)NC(=O)[C@H](CC(C)C)NC(=O)[C@@H](CCCCN)NC(=O)[C@H](Cc1ccc(O)cc1)NC(=O)[C@H](CO)NC(=O)[C@H](Cc1c[nH]c2ccccc12)NC(=O)[C@@H]1CCC(=O)N1 | 0.76 | 0.71 | 0.37 | 0.35 | 97 | 0.31 | 0.49 | 0.59 | – | – |
| CCCCCCCCCCCCNCCC[C@@H](NC(=O)[C@H](Cc1ccc(O)cc1)NC(=O)[C@H](CO)NC(=O)[C@H](Cc1c[nH]c2ccccc12)NC(=O)[C@H](Cc1cnc[nH]1)NC(=O)[C@@H]1CCC(=O)N1)C(=O)N[C@@H](CC(C)C)C(=O)N[C@@H](CCCNC(=N)N)C(=O)N1CCC[C@H]1C(=O)NCC | 0.72 | 0.38 | 0.46 | 0.43 | – | 0.4 | 0.45 | 0.62 | 490 | 0.37 |
| CC(C)C[C@H](NC(=O)[C@@H](CCCCN)NC(=O)[C@H](Cc1ccc(O)cc1)NC(=O)[C@H](CO)NC(=O)[C@H](Cc1c[nH]c2ccccc12)NC(=O)[C@@H]1CCC(=O)N1)C(=O)N[C@@H](CCCNC(=N)N)C(=O)N1CCC[C@H]1C(=O)NCC(N)=O ([pGlu]WSY[dK]LRPG-NH2) | 0.73 | 0.71 | 0.26 | 0.33 | 123 | 0.25 | 0.35 | 0.47 | – | – |
| CCNC(=O)[C@@H]1CCCN1C(=O)[C@H](CCCNC(=N)N)NC(=O)[C@H](CC(C)C)NC(=O)[C@@H](CCCCN)NC(=O)[C@H](Cc1ccc(O)cc1)NC(=O)[C@H](CO)NC(=O)[C@H](Cc1c[nH]c2ccccc12)NC(=O)[C@H](Cc1cnc[nH]1)NC(=O)[C@@H]1CCC(=O)N1 | 0.66 | 0.63 | 0.31 | 0.27 | – | – | 0.4 | 0.53 | 1726 | – |
| CC(=O)NCCCC[C@@H](NC(=O)[C@H](Cc1ccc(O)cc1)NC(=O)[C@H](CO)NC(=O)[C@H](Cc1c[nH]c2ccccc12)NC(=O)[C@H](Cc1cnc[nH]1)NC(=O)[C@@H]1CCC(=O)N1)C(=O)N[C@@H](CC(C)C)C(=O)N[C@@H](CCCNC(=N)N)C(=O)N1CCC[C@H]1C(=O)NCC(N)=O | 0.73 | 0.69 | 0.43 | 0.34 | – | 0.34 | 0.39 | 0.56 | 274 | 0.33 |
| CC(C)C[C@H](NC(=O)[C@@H](CCCN)NC(=O)[C@H](Cc1ccc(O)cc1)NC(=O)[C@H](CO)NC(=O)[C@H](Cc1c[nH]c2ccccc12)NC(=O)[C@H](Cc1cnc[nH]1)NC(=O)[C@@H]1CCC(=O)N1)C(=O)N[C@@H](CCCNC(=N)N)C(=O)N1CCC[C@H]1C(=O)NCC(N)=O | 0.62 | 0.6 | 0.25 | 0.24 | – | – | 0.35 | 0.45 | 182 | – |
| CC(C)C[C@H](NC(=O)[C@@H](CCCN)NC(=O)[C@H](Cc1ccc(O)cc1)NC(=O)[C@H](CO)NC(=O)[C@H](Cc1c[nH]c2ccccc12)NC(=O)[C@@H]1CCC(=O)N1)C(=O)N[C@@H](CCCNC(=N)N)C(=O)N1CCC[C@H]1C(=O)NCC(N)=O | 0.74 | 0.67 | 0.28 | 0.31 | 134 | 0.24 | 0.46 | 0.54 | – | – |
| CCCCCCCCCCCCNCCCC[C@@H](NC(=O)[C@H](Cc1ccc(O)cc1)NC(=O)[C@H](CO)NC(=O)[C@H](Cc1c[nH]c2ccccc12)NC(=O)[C@@H]1CCC(=O)N1)C(=O)N[C@@H](CC(C)C)C(=O)N[C@@H](CCCNC(=N)N)C(=O)N1CCC[C@H]1C(=O)NCC(N)=O | 0.78 | 0.48 | 0.44 | 0.46 | 284 | 0.44 | 0.52 | 0.66 | – | 0.43 |
| CCCCCCCCCCCCNCCCC[C@@H](NC(=O)[C@H](Cc1ccc(O)cc1)NC(=O)[C@H](CO)NC(=O)[C@H](Cc1c[nH]c2ccccc12)NC(=O)[C@H](Cc1cnc[nH]1)NC(=O)[C@@H]1CCC(=O)N1)C(=O)N[C@@H](CC(C)C)C(=O)N[C@@H](CCCNC(=N)N)C(=O)N1CCC[C@H]1C(=O)NCC(N)=O | 0.74 | 0.35 | 0.44 | 0.38 | – | 0.37 | 0.4 | 0.56 | 164 | 0.37 |
| CCCCCCCCCCCCNCCC[C@@H](NC(=O)[C@H](Cc1ccc(O)cc1)NC(=O)[C@H](CO)NC(=O)[C@H](Cc1c[nH]c2ccccc12)NC(=O)[C@@H]1CCC(=O)N1)C(=O)N[C@@H](CC(C)C)C(=O)N[C@@H](CCCNC(=N)N)C(=O)N1CCC[C@H]1C(=O)NCC ([pGlu]WSY[X1]LRP-NHEt) | 0.84 | 0.55 | 0.49 | 0.51 | 153 | 0.47 | 0.64 | 0.71 | – | 0.46 |
| CCCCCCCCCCCCNCCCC[C@@H](NC(=O)[C@H](Cc1ccc(O)cc1)NC(=O)[C@H](CO)NC(=O)[C@H](Cc1c[nH]c2ccccc12)NC(=O)[C@@H]1CCC(=O)N1)C(=O)N[C@@H](CC(C)C)C(=O)N[C@@H](CCCNC(=N)N)C(=O)N1CCC[C@H]1C(=O)NCC | 0.83 | 0.53 | 0.47 | 0.52 | 276 | 0.46 | 0.63 | 0.73 | – | 0.45 |
| CCCCCCCCCCCCNCCC[C@@H](NC(=O)[C@H](Cc1ccc(O)cc1)NC(=O)[C@H](CO)NC(=O)[C@H](Cc1c[nH]c2ccccc12)NC(=O)[C@@H]1CCC(=O)N1)C(=O)N[C@@H](CC(C)C)C(=O)N[C@@H](CCCNC(=N)N)C(=O)N1CCC[C@H]1C(=O)NCC(N)=O ([pGlu]WSY[X1]LRPG-NH2) | 0.78 | 0.48 | 0.44 | 0.47 | 278 | 0.45 | 0.53 | 0.67 | – | 0.43 |
| CC(C)C[C@H](NC(=O)[C@@H](CCCCN)NC(=O)[C@H](Cc1ccc(O)cc1)NC(=O)[C@H](CO)NC(=O)[C@H](Cc1c[nH]c2ccccc12)NC(=O)[C@H](Cc1cnc[nH]1)NC(=O)[C@@H]1CCC(=O)N1)C(=O)N[C@@H](CCCNC(=N)N)C(=O)N1CCC[C@H]1C(=O)NCC(N)=O | 0.57 | 0.58 | 0.24 | 0.24 | – | – | 0.31 | 0.42 | 383 | – |
| CCNC(=O)[C@@H]1CCCN1C(=O)[C@H](CCCNC(=N)N)NC(=O)[C@H](CC(C)C)NC(=O)[C@@H](CCCN)NC(=O)[C@H](Cc1ccc(O)cc1)NC(=O)[C@H](CO)NC(=O)[C@H](Cc1c[nH]c2ccccc12)NC(=O)[C@@H]1CCC(=O)N1 | 0.78 | 0.71 | 0.38 | 0.36 | 105 | 0.28 | 0.54 | 0.63 | – | – |
| CCNC(=O)[C@@H]1CCCN1C(=O)[C@H](CCCNC(=N)N)NC(=O)[C@H](CC(C)C)NC(=O)[C@@H](CCCN)NC(=O)[C@H](Cc1ccc(O)cc1)NC(=O)[C@H](CO)NC(=O)[C@H](Cc1c[nH]c2ccccc12)NC(=O)[C@H](Cc1cnc[nH]1)NC(=O)[C@@H]1CCC(=O)N1 | 0.65 | 0.69 | 0.34 | 0.29 | – | – | 0.26 | 0.47 | 682 | – |
| CCCCCCCCCCCCNCCC[C@@H](NC(=O)[C@H](Cc1ccc(O)cc1)NC(=O)[C@H](CO)NC(=O)[C@H](Cc1c[nH]c2ccccc12)NC(=O)[C@H](Cc1cnc[nH]1)NC(=O)[C@@H]1CCC(=O)N1)C(=O)N[C@@H](CC(C)C)C(=O)N[C@@H](CCCNC(=N)N)C(=O)N1CCC[C@H]1C(=O)NCC(N)=O | 0.72 | 0.34 | 0.43 | 0.39 | – | 0.38 | 0.4 | 0.59 | 290 | 0.36 |
| CC(=O)NCCC[C@@H](NC(=O)[C@H](Cc1ccc(O)cc1)NC(=O)[C@H](CO)NC(=O)[C@H](Cc1c[nH]c2ccccc12)NC(=O)[C@H](Cc1cnc[nH]1)NC(=O)[C@@H]1CCC(=O)N1)C(=O)N[C@@H](CC(C)C)C(=O)N[C@@H](CCCNC(=N)N)C(=O)N1CCC[C@H]1C(=O)NCC(N)=O | 0.7 | 0.66 | 0.43 | 0.34 | – | 0.33 | 0.38 | 0.57 | 101 | 0.34 |
| CCCCCCCCCCCCNCCCC[C@@H](NC(=O)[C@H](Cc1ccc(O)cc1)NC(=O)[C@H](CO)NC(=O)[C@H](Cc1c[nH]c2ccccc12)NC(=O)[C@H](Cc1cnc[nH]1)NC(=O)[C@@H]1CCC(=O)N1)C(=O)N[C@@H](CC(C)C)C(=O)N[C@@H](CCCNC(=N)N)C(=O)N1CCC[C@H]1C(=O)NCC | 0.72 | 0.4 | 0.47 | 0.43 | – | 0.39 | 0.42 | 0.61 | 1038 | 0.38 |
